Structures can show the parent of a compound that is named as a salt.
Design: species or system Hunden
Settings: dog, in vivo, 0 min
Source text: Die verhältnismässig einfache Synthese führt zu einer bemerkenswert hohen Ausbeute des erfinderischen Moleküls, der Metoprololnicotinsäure. Die an Hunden experimentierte Prodrugwirkung in drei verschiedenenen Dosen ergab folgende Retardwerte: (µg freie Base im Zielkompartiment)
Das Resultat zeigt, dass eine relativ hohe Konzentration im Plasma bis zu vier Stunden erwartet werden kann, was die deutlich retardierte Prodrugwirkung beweist. Die Dosis C zeigt unter anderem, dass auch kleine Konzentrationen einen langanhaltenden Spiegel zeigen.

- freie Base im Zielkompartiment (Retardwerte): 0 µg
Structure (SMILES): COCCc1ccc(OCC(CNC(C)C)OC(=O)c2cccnc2)cc1 (racemic) [Metoprololnicotinsäure, Metoprololnicotinsäureester-HCl]

From patent EP0472800A1, “Metoprololnicotinic acid ester, method of preparation and pharmaceutical use” (Sandmeier, Peter, Dr., priority 1990, dated 1992)
